Oligonucleotides are given in HELM: sugar(base)linkage, 5' to 3'; d 2'-deoxyribose, r ribose, m 2'-O-methylribose, p phosphate. ss, as = sense and antisense strand
Target: TMEM63B
Assay: reporter assay of Huesken 2005
Conditions: siRNA
Note: test concentration or dose not given here.

Substance	normalised inhibition (eCFP-eYFP dual reporter) [%]
RNA1{r(U)p.r(C)p.r(C)p.r(A)p.r(U)p.r(C)p.r(C)p.r(G)p.r(A)p.r(G)p.r(G)p.r(C)p.r(U)p.r(U)p.r(C)p.r(A)p.r(U)p.r(C)p.r(U)p.d(T)p.d(T)}|RNA2{r(A)p.r(G)p.r(A)p.r(U)p.r(G)p.r(A)p.r(A)p.r(G)p.r(C)p.r(C)p.r(U)p.r(C)p.r(G)p.r(G)p.r(A)p.r(U)p.r(G)p.r(G)p.r(A)p.d(G)p.d(A)}$$$RNA1{StrandType:ss}|RNA2{StrandType:as}$	65.3
RNA1{r(C)p.r(U)p.r(C)p.r(C)p.r(U)p.r(C)p.r(U)p.r(U)p.r(C)p.r(U)p.r(U)p.r(C)p.r(C)p.r(U)p.r(C)p.r(A)p.r(C)p.r(C)p.r(A)p.d(T)p.d(T)}|RNA2{r(U)p.r(G)p.r(G)p.r(U)p.r(G)p.r(A)p.r(G)p.r(G)p.r(A)p.r(A)p.r(G)p.r(A)p.r(A)p.r(G)p.r(A)p.r(G)p.r(G)p.r(A)p.r(G)p.d(G)p.d(A)}$$$RNA1{StrandType:ss}|RNA2{StrandType:as}$	68
RNA1{r(G)p.r(A)p.r(C)p.r(U)p.r(U)p.r(U)p.r(G)p.r(A)p.r(C)p.r(C)p.r(A)p.r(A)p.r(A)p.r(G)p.r(G)p.r(G)p.r(A)p.r(C)p.r(A)p.d(T)p.d(T)}|RNA2{r(U)p.r(G)p.r(U)p.r(C)p.r(C)p.r(C)p.r(U)p.r(U)p.r(U)p.r(G)p.r(G)p.r(U)p.r(C)p.r(A)p.r(A)p.r(A)p.r(G)p.r(U)p.r(C)p.d(A)p.d(A)}$$$RNA1{StrandType:ss}|RNA2{StrandType:as}$	89.5
RNA1{r(C)p.r(C)p.r(U)p.r(U)p.r(U)p.r(G)p.r(U)p.r(C)p.r(A)p.r(C)p.r(C)p.r(U)p.r(U)p.r(C)p.r(C)p.r(A)p.r(C)p.r(A)p.r(A)p.d(T)p.d(T)}|RNA2{r(U)p.r(U)p.r(G)p.r(U)p.r(G)p.r(G)p.r(A)p.r(A)p.r(G)p.r(G)p.r(U)p.r(G)p.r(A)p.r(C)p.r(A)p.r(A)p.r(A)p.r(G)p.r(G)p.d(C)p.d(C)}$$$RNA1{StrandType:ss}|RNA2{StrandType:as}$	74.2
RNA1{r(G)p.r(G)p.r(U)p.r(G)p.r(G)p.r(C)p.r(C)p.r(G)p.r(C)p.r(G)p.r(C)p.r(C)p.r(C)p.r(A)p.r(U)p.r(C)p.r(C)p.r(U)p.r(C)p.d(T)p.d(T)}|RNA2{r(G)p.r(A)p.r(G)p.r(G)p.r(A)p.r(U)p.r(G)p.r(G)p.r(G)p.r(C)p.r(G)p.r(C)p.r(G)p.r(G)p.r(C)p.r(C)p.r(A)p.r(C)p.r(C)p.d(A)p.d(C)}$$$RNA1{StrandType:ss}|RNA2{StrandType:as}$	49.4
RNA1{r(C)p.r(G)p.r(A)p.r(U)p.r(G)p.r(C)p.r(A)p.r(G)p.r(A)p.r(G)p.r(A)p.r(G)p.r(G)p.r(A)p.r(A)p.r(G)p.r(A)p.r(A)p.r(G)p.d(T)p.d(T)}|RNA2{r(C)p.r(U)p.r(U)p.r(C)p.r(U)p.r(U)p.r(C)p.r(C)p.r(U)p.r(C)p.r(U)p.r(C)p.r(U)p.r(G)p.r(C)p.r(A)p.r(U)p.r(C)p.r(G)p.d(A)p.d(G)}$$$RNA1{StrandType:ss}|RNA2{StrandType:as}$	56.4
RNA1{r(A)p.r(G)p.r(A)p.r(G)p.r(A)p.r(G)p.r(G)p.r(A)p.r(A)p.r(G)p.r(A)p.r(A)p.r(G)p.r(G)p.r(C)p.r(C)p.r(G)p.r(A)p.r(G)p.d(T)p.d(T)}|RNA2{r(C)p.r(U)p.r(C)p.r(G)p.r(G)p.r(C)p.r(C)p.r(U)p.r(U)p.r(C)p.r(U)p.r(U)p.r(C)p.r(C)p.r(U)p.r(C)p.r(U)p.r(C)p.r(U)p.d(G)p.d(C)}$$$RNA1{StrandType:ss}|RNA2{StrandType:as}$	49.4
RNA1{r(G)p.r(C)p.r(A)p.r(A)p.r(C)p.r(G)p.r(U)p.r(G)p.r(A)p.r(A)p.r(G)p.r(C)p.r(G)p.r(G)p.r(C)p.r(A)p.r(U)p.r(C)p.r(A)p.d(T)p.d(T)}|RNA2{r(U)p.r(G)p.r(A)p.r(U)p.r(G)p.r(C)p.r(C)p.r(G)p.r(C)p.r(U)p.r(U)p.r(C)p.r(A)p.r(C)p.r(G)p.r(U)p.r(U)p.r(G)p.r(C)p.d(G)p.d(C)}$$$RNA1{StrandType:ss}|RNA2{StrandType:as}$	72.4
RNA1{r(C)p.r(U)p.r(G)p.r(C)p.r(C)p.r(G)p.r(G)p.r(C)p.r(C)p.r(A)p.r(A)p.r(G)p.r(C)p.r(U)p.r(G)p.r(G)p.r(A)p.r(C)p.r(A)p.d(T)p.d(T)}|RNA2{r(U)p.r(G)p.r(U)p.r(C)p.r(C)p.r(A)p.r(G)p.r(C)p.r(U)p.r(U)p.r(G)p.r(G)p.r(C)p.r(C)p.r(G)p.r(G)p.r(C)p.r(A)p.r(G)p.d(G)p.d(T)}$$$RNA1{StrandType:ss}|RNA2{StrandType:as}$	65.2
RNA1{r(A)p.r(A)p.r(C)p.r(G)p.r(C)p.r(C)p.r(A)p.r(U)p.r(G)p.r(G)p.r(A)p.r(C)p.r(C)p.r(U)p.r(G)p.r(C)p.r(U)p.r(G)p.r(C)p.d(T)p.d(T)}|RNA2{r(G)p.r(C)p.r(A)p.r(G)p.r(C)p.r(A)p.r(G)p.r(G)p.r(U)p.r(C)p.r(C)p.r(A)p.r(U)p.r(G)p.r(G)p.r(C)p.r(G)p.r(U)p.r(U)p.d(G)p.d(C)}$$$RNA1{StrandType:ss}|RNA2{StrandType:as}$	27.2
RNA1{r(C)p.r(U)p.r(C)p.r(A)p.r(C)p.r(G)p.r(G)p.r(A)p.r(C)p.r(A)p.r(C)p.r(A)p.r(G)p.r(A)p.r(C)p.r(U)p.r(U)p.r(C)p.r(C)p.d(T)p.d(T)}|RNA2{r(G)p.r(G)p.r(A)p.r(A)p.r(G)p.r(U)p.r(C)p.r(U)p.r(G)p.r(U)p.r(G)p.r(U)p.r(C)p.r(C)p.r(G)p.r(U)p.r(G)p.r(A)p.r(G)p.d(G)p.d(G)}$$$RNA1{StrandType:ss}|RNA2{StrandType:as}$	61.7
RNA1{r(C)p.r(U)p.r(A)p.r(G)p.r(C)p.r(U)p.r(C)p.r(C)p.r(C)p.r(A)p.r(C)p.r(G)p.r(U)p.r(C)p.r(U)p.r(A)p.r(U)p.r(G)p.r(U)p.d(T)p.d(T)}|RNA2{r(A)p.r(C)p.r(A)p.r(U)p.r(A)p.r(G)p.r(A)p.r(C)p.r(G)p.r(U)p.r(G)p.r(G)p.r(G)p.r(A)p.r(G)p.r(C)p.r(U)p.r(A)p.r(G)p.d(G)p.d(A)}$$$RNA1{StrandType:ss}|RNA2{StrandType:as}$	66.7
RNA1{r(U)p.r(C)p.r(A)p.r(C)p.r(C)p.r(U)p.r(G)p.r(C)p.r(C)p.r(C)p.r(C)p.r(A)p.r(U)p.r(C)p.r(A)p.r(U)p.r(C)p.r(G)p.r(U)p.d(T)p.d(T)}|RNA2{r(A)p.r(C)p.r(G)p.r(A)p.r(U)p.r(G)p.r(A)p.r(U)p.r(G)p.r(G)p.r(G)p.r(G)p.r(C)p.r(A)p.r(G)p.r(G)p.r(U)p.r(G)p.r(A)p.d(T)p.d(A)}$$$RNA1{StrandType:ss}|RNA2{StrandType:as}$	73
RNA1{r(C)p.r(C)p.r(U)p.r(U)p.r(C)p.r(C)p.r(A)p.r(C)p.r(A)p.r(A)p.r(U)p.r(G)p.r(A)p.r(G)p.r(A)p.r(C)p.r(U)p.r(A)p.r(U)p.d(T)p.d(T)}|RNA2{r(A)p.r(U)p.r(A)p.r(G)p.r(U)p.r(C)p.r(U)p.r(C)p.r(A)p.r(U)p.r(U)p.r(G)p.r(U)p.r(G)p.r(G)p.r(A)p.r(A)p.r(G)p.r(G)p.d(T)p.d(G)}$$$RNA1{StrandType:ss}|RNA2{StrandType:as}$	72.3

— the OligoGym collection
